Laboratory results published in publication PMC8035174, “The Pseudomonas aeruginosa substrate-binding protein Ttg2D functions as a general glycerophospholipid transporter across the periplasm” (Communications Biology, 2021).
≈ marks a conversion by molar mass, not a printed value.

Tested on: T1, Pseudomonas aeruginosa PAO1
T1 construct: PAO1
Assay: microbe, parasite or virus in culture
Design: broth microdilution MIC in cation-adjusted Mueller-Hinton broth, visual growth or resazurin
Settings: PAO1, 20 h, read-out: MIC PAO1
Description: Analysis of antimicrobial susceptibilities. […] The BMD method was performed on cation adjusted MH broth (CAMHB) as recommended 41, 42 . Bacteria were first grown overnight in CAMHB using CLSI-recommended incubation conditions and the antibiotics were serially diluted twofold across the 96 well plates. After that, 100 µl of a bacterial suspension diluted to 5x10^5 CFU/ml in CAMHB was added to the wells containing the antibiotic dilutions. The 96-well plates were incubated for 20 h at 37°C before developing by visual inspection or with the resazurin dye 43 . MIC was defined as the lowest concentration of the antibiotic (in μg/ml) that prevented visual growth. As the LESB58 isolate is considered a slower growing strain compared to laboratory strain PAO1 44, incubation for bacterial growth was extended to 48 h instead of 24 h for some protocols. […] For Etest a 0.5 McFarland suspension was used to create a confluent lawn of microbial growth in 150-mm Mueller-Hinton (MH) agar plates. The MIC values were determined according to the Etest reading guide after 18 h incubation at 37°C. MICs were determined as the concentration at which the zone of inhibition intersected the Etest strip.

Q: `NCC[C@H](O)C(=O)N[C@@H]1C[C@H](N)[C@@H](O[C@H]2O[C@H](CN)[C@@H](O)[C@H](O)[C@H]2O)[C@H](O)[C@H]1O[C@H]1O[C@H](CO)[C@@H](O)[C@H](N)[C@H]1O` [Amikacin] was tested. Which MIC did it give?
A: 2 µg/mL (≈ 3.42 µM)

Q: For `CC(C)(O/N=C(\C(=O)N[C@@H]1C(=O)N2C(C(=O)[O-])=C(C[n+]3ccccc3)CS[C@H]12)c1csc(N)n1)C(=O)O` [Ceftazidime], which MIC is on record?
A: 1 µg/mL (≈ 1.83 µM)

Q: With `O=C(N[C@H](CO)[C@H](O)c1ccc([N+](=O)[O-])cc1)C(Cl)Cl` [Chloramphenicol] as the molecule, how does the MIC read?
A: > 256 µg/mL

Q: For `C[C@@H](O)[C@H]1C(=O)N2C(C(=O)O)=C(SCCNC=N)C[C@H]12` [Imipenem], which MIC is on record?
A: 4 µg/mL (≈ 13.4 µM)

Q: `C[C@H]1COc2c(N3CCN(C)CC3)c(F)cc3c(=O)c(C(=O)O)cn1c23` [Levofloxacin] was tested. Which MIC did it give?
A: 4 µg/mL (≈ 11.1 µM)

Q: With `C[C@@H](O)[C@H]1C(=O)N2C(C(=O)O)=C(S[C@@H]3CN[C@H](C(=O)N(C)C)C3)[C@H](C)[C@H]12` [Meropenem] as the molecule, how does the MIC read?
A: 1 µg/mL (≈ 2.61 µM)

Q: `CN(C)c1ccc(O)c2c1C[C@H]1C[C@H]3[C@H](N(C)C)C(O)=C(C(N)=O)C(=O)[C@@]3(O)C(O)=C1C2=O` [Minocycline] was tested. Which MIC did it give?
A: 32 µg/mL (≈ 69.9 µM)

Q: For `CCn1cc(C(=O)O)c(=O)c2cc(F)c(N3CCNCC3)cc21` [Norfloxacin], which MIC is on record?
A: 4 µg/mL (≈ 12.5 µM)

Q: With `CC1COc2c(N3CCN(C)CC3)c(F)cc3c(=O)c(C(=O)O)cn1c23` (stereo not shown) [Ofloxacin] as the molecule, how does the MIC read?
A: 8 µg/mL (≈ 22.1 µM)

Q: For `CCN1CCN(C(=O)N[C@@H](C(=O)N[C@@H]2C(=O)N3[C@@H]2SC(C)(C)[C@@H]3C(=O)O)c2ccccc2)C(=O)C1=O` [Piperacillin], which MIC is on record?
A: 2 µg/mL (≈ 3.86 µM)

Q: With `CN[C@@H]1[C@H](O[C@H]2[C@H](O[C@H]3[C@H](O)[C@@H](O)[C@H](N=C(N)N)[C@@H](O)[C@@H]3N=C(N)N)O[C@@H](C)[C@]2(O)C=O)O[C@@H](CO)[C@H](O)[C@H]1O` [Streptomycin] as the molecule, how does the MIC read?
A: 8 µg/mL (≈ 13.8 µM)

Q: How did the MIC turn out when `CC1(C)S[C@@H]2[C@H](NC(=O)[C@H](C(=O)O)c3ccsc3)C(=O)N2[C@H]1C(=O)O` [Ticarcillin] was run?
A: 16 µg/mL (≈ 41.6 µM)

Q: For `CN(C)c1cc(NC(=O)CNC(C)(C)C)c(O)c2c1C[C@H]1C[C@H]3[C@H](N(C)C)C(O)=C(C(N)=O)C(=O)[C@@]3(O)C(O)=C1C2=O` [Tigecycline], which MIC is on record?
A: 32 µg/mL (≈ 54.6 µM)
